Read-outs that look alike come from different tables or passages of the source.
Legend:
[1] = test system: pig model of myocardial infarction; conditions: for 0 Min HR (bpm) / 30 Min MAP (mmHg) / 60 Min HR (bpm) / 90 Min MAP (mmHg) / 120 Min HR (bpm) / 150 Min MAP (mmHg): time after induction of MI
Experimental: All animal experiments and analyses were performed in a blinded, randomized fashion. […] Fifteen minutes before reperfusion, pigs were randomly assigned to IV treatment with either placebo (40 mL PBS) or a 10 mg/kg IZD334 loading dose (dissolved in 40 mL PBS) infusion for 30 min. After the first dose of IZD334, pigs were randomly assigned to three oral treatment regimens (1 mg/kg, 3 mg/kg, and 10 mg/kg). Dosing was based on in vivo pharmacokinetic findings in healthy pigs. The control (PBS) group received an oral placebo. Oral treatment was continued for six days. All pigs underwent transthoracic and three-dimensional transesophageal echocardiography before induction of ischemia and after 7 days. Furthermore, on day 7, cardiac magnetic resonance (CMR) imaging was performed. Subsequently, the LAD was occluded at the exact same site as during infarct induction. After verification of complete vessel occlusion, Evans Blue (E2129, Sigma-Aldrich, St. Louis, MO, USA) solution was infused in the left and right coronary arteries in order to assess the area at risk (AAR). Animals were sacrificed by exsanguination under anesthesia. […] Each slice was photographed at the basal and apical side with a ruler and analyzed with ImageJ software (NIH, Bethesda, MD, USA).

[2] = test system: pig model of myocardial infarction; assay: In vivo MI study: serological and histological read-outs; design: species or system pigs; conditions: 1, 3, 10 mg/kg groups
Experimental: Circulating leukocyte numbers at different time points after reperfusion were measured by whole-blood analysis using an automated hematological cell-counter (Cell-Dyn Sapphire, Abbott, Santa Clara, CA, USA). Plasma samples were obtained by whole-blood centrifugation at 1850× g and were immediately stored at −80 °C. C-reactive protein (CRP) levels were measured using solid phase DuoSet sandwich ELISA (DY1707, R&D Systems, Minneapolis, MN, USA) according to the manufacturer’s protocol. Troponin I levels were measured using a clinical chemistry analyzer (AU5811, Beckman Coulter, Woerden, The Netherlands). Histological analysis of collagen, myocardial immune cells, neutrophils, and monocyte infiltration is described in the Appendix A.
Infarcted and border zoned myocardial tissues were collected, and protein was isolated using a Roche protein isolation kit (cOmplete™ Lysis-M EDTA-free, Roche, Basel, Switzerland). IL-1β protein was measured with a Luminex Immunoassay specific for pig IL-1β (ProcartaPlex Pig IL-1β simplex Cat# EXP01A-66048-901 Invitrogen, Thermo Fisher Scientific, MA, USA) and corrected for total protein. For further histological analysis, infarcted and BZ myocardial tissue was processed, paraffin-imbedded, and cut into 5 µm sections after being conserved in 4% paraformaldehyde for 7 days. Cell nuclei were stained using hematoxylin, and area of cell infiltration was counted for each pig in 5 regions close to fibrotic areas in the infarct zone using Olympus CellSens software. Collagen was visualized using Picosirus Red staining (Abcam). The percentage of collagen was quantified using ImageJ software (1.47v).
Neutrophil infiltration in myocardial tissue was quantified in paraffin-embedded histological biopsies that were conserved in 4% formaldehyde for at least 7 days with a monoclonal mouse antibody against porcine neutrophils (Clone PM1, BMA Biomedicals, Augst, Switzerland) for 60 min and secondary incubation with Brightvision Poly-AP-anti-mouse (ImmunoLogic, Duiven, The Netherlands) for 30 min followed by development with liquid permanent red.
Monocyte infiltration was quantified in histological slides of myocardial tissue (paraffin and fresh frozen slides, respectively) using a monoclonal mouse anti-pig antibody against CD107a (Clone JM2E5, Bio-Rad, Kidlington, UK) or a mouse monoclonal antibody against CD14 (Ab23919, Abcam, Cambridge, UK); 60 min of incubation was followed by Brightvision Poly-AP-anti-mouse (ImmunoLogic, Duiven, The Netherlands) for 30 min and development with liquid permanent red.

[3] = test system: pig model of myocardial infarction; assay: In vivo MI study: regional cardiac function and dobutamine echocardiography; design: species or system pigs; conditions: high-dose group (10 mg/kg), 7 days follow-up
Text: Oral treatment was continued for six days. […] Animals were sacrificed by exsanguination under anesthesia.
Images were made using a X7-2T transducer on an iE33 ultrasound device (Philips, Eindhoven, The Netherlands). The pig was placed in the right lateral position, and the echo probe was inserted 50–60 cm into the esophagus. We used the 3D full volume option and temporarily interrupted mechanical ventilation to assess LV geometry and function. On day 7 we additionally obtained dobutamine stress-echocardiography to assess regional cardiac function. Images were analyzed in a blinded fashion with validated software, QLab 10.7 (Philips, Eindhoven, The Netherlands).

[4] = infarct tissue, 7 days after MI
[5] = myocardial tissue, 7 days after MI

CCN1CCC(S(=O)(=O)[N-]C(=O)Nc2c3c(cc4c2CCC4)CCC3)CC1.[K+] [IZD334]
0 Min HR (bpm) ([1]; 1 mg/kg group, n = 6): 70 ± 12 bpm
30 Min MAP (mmHg) ([1]; 1 mg/kg group, n = 6): 85 ± 7 mmHg
60 Min HR (bpm) ([1]; 1 mg/kg group, n = 6): 68 ± 9 bpm
90 Min MAP (mmHg) ([1]; 1 mg/kg group, n = 6): 71 ± 12 mmHg
120 Min HR (bpm) ([1]; 1 mg/kg group, n = 6): 67 ± 8 bpm
150 Min MAP (mmHg) ([1]; 1 mg/kg group, n = 6): 79 ± 11 mmHg
0 Min HR (bpm) ([1]; 3 mg/kg group, n = 7): 74 ± 4 bpm
30 Min MAP (mmHg) ([1]; 3 mg/kg group, n = 7): 74 ± 13 mmHg
60 Min HR (bpm) ([1]; 3 mg/kg group, n = 7): 72 ± 11 bpm
90 Min MAP (mmHg) ([1]; 3 mg/kg group, n = 7): 58 ± 20 mmHg
120 Min HR (bpm) ([1]; 3 mg/kg group, n = 7): 61 ± 7 bpm
150 Min MAP (mmHg) ([1]; 3 mg/kg group, n = 7): 70 ± 23 mmHg
0 Min HR (bpm) ([1]; 10 mg/kg group, n = 7): 73 ± 11 bpm
30 Min MAP (mmHg) ([1]; 10 mg/kg group, n = 7): 72 ± 12 mmHg
60 Min HR (bpm) ([1]; 10 mg/kg group, n = 7): 70 ± 11 bpm
90 Min MAP (mmHg) ([1]; 10 mg/kg group, n = 7): 56 ± 19 mmHg
120 Min HR (bpm) ([1]; 10 mg/kg group, n = 7): 62 ± 7 bpm
150 Min MAP (mmHg) ([1]; 10 mg/kg group, n = 7): 62 ± 15 mmHg
Heart rate and mean arterial blood pressure versus placebo ([1]; first 2.5 h after induction of MI and subsequent compound administration, all dose groups): similar
pigs that died one day after infarct induction ([1]; low-dose (1 mg/kg) group, presumably due to late VF, also one animal in the placebo group): one animal
CRP levels versus placebo ([2]; any time point during 7-day follow-up): No significant difference
Systemic troponin I levels versus placebo ([2]; 7-day follow-up): trends were similar between the treatment groups
Total leukocyte numbers versus placebo ([2]; circulating, 7-day follow-up): did not differ between groups
neutrophil counts versus placebo ([2]; circulating, 7-day follow-up): did not differ between groups
Intra-myocardial IL-1β levels versus placebo ([2]; infarct and border zone, 7 days after MI): without any difference among treatment arms
collagen formation (histology) versus placebo [2, 4]: no differences between the groups
total myocardial immune cell infiltration (histology) versus placebo [2, 4]: no differences between the groups
monocyte infiltration (histology) versus placebo [2, 5]: no differences between the groups
neutrophil infiltration (histology) versus placebo [2, 5]: no differences between the groups
Fractional area changes at mitral, mid-ventricular, and apical levels versus placebo ([3]; data not shown): equal between groups
Septal and inferolateral systolic wall thickness and thickening versus placebo ([3]; mid-ventricular level): did not differ between these groups

Reference: PMC9775177, “NLRP3-Inflammasome Inhibition with IZD334 Does Not Reduce Cardiac Damage in a Pig Model of Myocardial Infarction” (Biomedicines, 2022)
